Where a name gives a salt, the structure may show the parent alone.
Key:
Experiment in all cases: Growth inhibition test (MTT) for cytotoxic properties
HT 29 = assay type: cell-based, human
Summary of the method: (§1)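 IC50 values come from an MTT read at 540 nm (5 h at 37 °C, 5 mg/ml MTT stock), taken on day 3 and day 6. Cells (HT 29, SW 480; 50,000 cells/ml in RPMI/10% FCS) were pre-cultured 1 day, then compound in DMSO was added.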

SW 480 = assay type: cell-based, human
Summary of the method: as §1

B 16 F 10 = assay type: cell-based, mouse; details: Table 1b
Experimental: Growth Inhibition Test for Determination of the Cytotoxic Properties of Glycoconjugates of Batracyline and of Quinolone-a
The human colon cell lines SW 480 and HT 29 (ATCC no. CCL 228 and HBT-38) and the mouse melanoma cell line B 16 F 10 were cultured in Roux dishes in RPMI 1640 medium with addition of 10% FCS. The cultures were then trypsinized and taken up in RPMI plus 10% FCS to a cell count of 50,000 cells/ml. 100 μl of cell suspension/well were introduced into a 96 microwell plate and incubated for 1 day at 37° C. in a CO2 incubating cabinet. A further 100 μl of RPMI medium and 1 μl of dimethyl sulphoxide with the test substances were then added. The growth was checked after day 3 and day 6. 40 μl of MTT solution (3-(4,5-dimethylthiazol-2-yl)-2,5-diphenyltetrazoline bromide) with an initial concentration of 5 mg/ml of H2 O were added to each microwave. The plate was incubated for 5 hours in a CO2 incubating cabinet at 37° C. The medium was then sucked off and 100 μl of i-propanol/well were added. After shaking for 30 minutes with 100 μl of H2 O, the extinction was measured at 540 nm with a Titertek Multiskan MCC/340 (Flow).

[1] = Table 1a, glycoconjugates of batracyline

Compound | IC50 (HT 29; Table 1b) | IC50 (SW 480; Table 1b) | IC50 (B 16 F 10) | IC50 (HT 29; [1]) | IC50 (SW 480; [1])
CC1OC(Oc2ccc(NC(=S)NC3C=CCC4CN(c5c(F)cc6c(=O)c(C(=O)O)cn(C7CC7)c6c5Cl)CC43)cc2)C(O)C(OCC(=O)O)C1O (mixture of isomers) [Example 12.12, N-[O-(3-O-Carboxymethyl-β-L-fucosyl)-4hydroxy-phenylamino-thiocarbonyl-quinolone-a, di-sodium salt] | 13 µM | 8 µM | 0.5 µM | – | –
Cc1csc2c(C(=O)O)c(=O)c3cc(F)c(N4CC5C(C)C=CC(NC(=O)C(CCCCN)NC(=S)Nc6ccc(OC7OC(C)C(O)C(OCC(=O)O)C7O)cc6)C5C4)cc3n12 (mixture of isomers) [Example 14.3, N-{N^α -[O-(3-O-Carboxymethyl-β-L-fucosyl)-4-hydroxy-phenylamino-thiocarbonyl]-lysyl}-quinolone-c, di-sodium salt] | 4 µM | 8 µM | 4 µM | – | –
C[C@@H]1O[C@H](Oc2ccc(NC(=S)NCCCC[C@H](N)C(=O)N[C@H](C)C(=O)NC3C=CCC4CN(c5c(F)cc6c(=O)c(C(=O)O)cn(C7CC7)c6c5Cl)CC43)cc2)[C@@H](O)[C@H](OCC(=O)O)[C@@H]1O (stereo partly drawn) [Example 10.1, N-{N^ε -[O(3-O-Carboxymethyl-β-L-fucosyl)-4-hydroxy-phenylamino-thiocarbonyl]-lysyl-D-alanyl}-quinolone-a] | > 250 µM | 50 µM | 15 µM | – | –
CO[C@H]1[C@H](O)[C@@H](Oc2ccc(NC(=S)NCCCC[C@H](N)C(=O)N[C@@H](C)C(=O)NC3C=CCC4CN(c5c(F)cc6c(=O)c(C(=O)O)cn(C7CC7)c6c5Cl)CC43)cc2)O[C@@H](C)[C@H]1O (stereo partly drawn) [Example 10.2, N-{N^ε -[O-(3-O-Methyl-β-L-fucosyl)-4-hydroxy-phenylamino-thiocarbonyl]-lysyl-alanyl}-quinolone-a] | 3 µM | 4 µM | 5 µM | – | –
CO[C@H]1[C@H](O)[C@@H](Oc2ccc(NC(=S)NCCCC[C@H](N)C(=O)NC3C=CCC4CN(c5c(F)cc6c(=O)c(C(=O)O)cn(C7CC7)c6c5Cl)CC43)cc2)O[C@@H](C)[C@H]1O (stereo partly drawn) [Example 10.3, N-{N^ε -[O-(3-O-Methyl-β-L-fucosyl)-4-hydroxy-phenylamino-thiocarbonyl]-lysyl}-quinolone-a] | 4 µM | 5 µM | 0.7 µM | – | –
CO[C@H]1[C@H](O)[C@@H](Oc2ccc(NC(=S)N[C@@H](C)C(=O)NC3C=CCC4CN(c5c(F)cc6c(=O)c(C(=O)O)cn(C7CC7)c6c5Cl)CC43)cc2)O[C@@H](C)[C@H]1O (stereo partly shown) [Example 12.2] | – | 4 µM | 0.8 µM | – | –
N-{N^α -[O-(3-O-Methyl-β-L-fucosyl)-4-hydroxyphenylamino-thiocarbonyl]-N. sup.ε -[O-(3-O-carboxymethyl-β-L-fucosyl)-4-hydroxyphenylamino-thiocarbonyl ]-lysyl-D-alanyl}-batracyline [Example 5.2] | – | – | – | 55 µM | 20 µM
N-{N^α -[O-(β-D-Galactopyranosyl)-4-hydroxy-phenylamino-thiocarbonyl]-lysyl- D-alanyl}-batracyline [Example 4.6] | – | – | – | 10 µM | 10 µM
N-{N^α,N^ε -Bis-10-(3-O-carbamoylmethyl-β-D-galactopyranosyl)-4-hydroxy-phenylam ino-thiocarbonyl]-lysyl-glycyl}-batracyline [Example 6.60] | – | – | – | 40 µM | 50 µM
N-{N^α,N^ε -Bis-[O-(2-hydroxyethyl-β-L-fucosyl)-4-hydroxy-phenylamino-thiocarbon yl]-lysyl-D-alanyl}-batracyline [Example 6.10] | – | – | – | 50 µM | 50 µM
N-{N^α,N^ε -Bis-[O-(3,4-di-O-methyl-β-D-galactopyranosyl)-4-hydroxy-phenylamino- thiocarbonyl]-lysyl-D-seryl}-batracyline [Example 6.40] | – | – | – | 60 µM | 170 µM
N-{N^α,N^ε -Bis-[O-(3,4-di-O-methyl-β-D-galactopyranosyl)-4-hydroxy-phenylamino- thiocarbonyl]-lysyl-seryl}-batracyline [Example 6.32] | – | – | – | 60 µM | 60 µM
N-{N^α,N^ε -Bis-[O-(3-O-carbamoylmethyl-β-D-galactopyranosyl)-4-hydroxy-phenylam ino-thiocarbonyl]-lysyl-D-seryl}-batracyline [Example 6.43] | – | – | – | 80 µM | 90 µM
N-{N^α,N^ε -Bis-[O-(3-O-carboxymethyl-β-D-galactopyranosyl)-4-hydroxy-phenylamin o-thiocarbonyl]-lysyl-D-asparagyl}-batracyline, di-sodium salt [Example 6.46] | – | – | – | 100 µM | 120 µM
N-{N^α,N^ε -Bis-[O-(3-O-carboxymethyl-β-D-galactopyranosyl)-4-hydroxy-phenylamin o-thiocarbonyl]-lysyl-glycyl}-batracyline, di-sodium salt [Example 6.59] | – | – | – | 50 µM | 50 µM
N-{N^α,N^ε -Bis-[O-(3-O-carboxymethyl-β-L-fucosyl)-4-hydroxy-phenylamino-thiocar bonyl]-lysyl}-batracyline [Example 6.25] | – | – | – | 40 µM | 50 µM
N-{N^α,N^ε -Bis-[O-(3-O-methoxycarbonylmethyl-β-D-galactopyranosyl)-4-hydroxy-ph enylamino-thiocarbonyl]-lysyl-D-alanyl}-batracyline [Example 6.80] | – | – | – | 25 µM | 40 µM
N-{N^α,N^ε -Bis-[O-(3-O-methyl-α-D-mannopyranosyl)-4-hydroxy-phenylamino-thioca rbonyl]-lysyl-seryl}-batracyline [Example 6.36] | – | – | – | 70 µM | 70 µM
N-{N^α,N^ε -Bis-[O-(3-O-methyl-β-D-galactopyranosyl)-4-hydroxy-phenylamino-thioc arbonyl]-lysyl-seryl}-batracyline [Example 6.30] | – | – | – | 70 µM | 60 µM
N-{N^α,N^ε -Bis-[O-(3-O-methyl-β-L-fucosyl)-4-hydroxy-phenylamino-thiocarbonyl]- lysyl-D-seryl}-batracyline [Example 6.23] | – | – | – | 45 µM | 107 µM
N-{N^α,N^ε -Bis-[O-(3-O-n-propyl-β-L-fucosyl)-4-hydroxy-phenylamino-thiocarbonyl ]lysyl-D-alanyl}-batracyline [Example 6.7] | – | – | – | > 250 µM | 60 µM
N-{N^α,N^ε -Bis-[O-(α-L-rhamnosyl)-4-hydroxy-phenylamino-thiocarbonyl]-lysyl-D- alanyl}-batracyline [Example 6.15] | – | – | – | > 250 µM | > 250 µM
N-{N^ε -O-(2-O-Methyl-β-L-fucosyl)-4-hydroxy-phenylamino-thiocarbonyl]-lysyl -D-alanyl}-batracyline [Example 3.2] | – | – | – | 75 µM | 100 µM
N-{N^ε -[O-(3-O-Carbamoylmethyl-β-L-fucosyl)-4-hydroxy-phenylamino-thiocarbo nyl]-lysyl-D-alanyl}-batracyline, sodium salt [Example 3.10] | – | – | – | 125 µM | 100 µM
N-{Nα-[O-(β-L-Fucosyl)-4-hydroxy-phenylamino-thiocarbonyl]-lysy l-D-alanyl}-batracyline [Example 4.1] | – | – | – | 30 µM | 25 µM

— patent US6271342A, “Sugar-modified cytostatics” (Bayer Aktiengesellschaft, priority 1995, dated 2001)
